# Legend:
# [1] = target: T1, CHO-CFTR cell line (Homo sapiens, UniProt P13569); assay: CHO-CFTR assay (FLIPR assay, same conditions as the T84 assay); type: cell-based; conditions: imidazole and triazole-containing compounds
# T1 construct: expressed in transfected cells; host or cells: CHO (CHO-CFTR cell line)
# [2] = target: T2, CFTR (Homo sapiens, UniProt P13569); assay: T84 assay (FLIPR membrane potential dye, forskolin/IBMX-stimulated CFTR channel activity); type: cell-based; conditions: imidazole and triazole-containing compounds (Tables 13, 14, 14′), read-out: IC50 (μM) (T84 assay)
# T2 construct: endogenous in cells; host or cells: T84 human colonic cells (ECACC)
# How it was run: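 Fluorescence from a membrane potential dye in T84 monolayers (HBSS with 10 mM Hepes) is followed each second for 150 s. Cells are exposed to test compound during the 45 min dye loading, then challenged with forskolin (10 μM) and IBMX (100 μM) to open CFTR. Inhibitors suppress the depolarization-driven fluorescence increase.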
# T1 sequence (P13569 whole entry): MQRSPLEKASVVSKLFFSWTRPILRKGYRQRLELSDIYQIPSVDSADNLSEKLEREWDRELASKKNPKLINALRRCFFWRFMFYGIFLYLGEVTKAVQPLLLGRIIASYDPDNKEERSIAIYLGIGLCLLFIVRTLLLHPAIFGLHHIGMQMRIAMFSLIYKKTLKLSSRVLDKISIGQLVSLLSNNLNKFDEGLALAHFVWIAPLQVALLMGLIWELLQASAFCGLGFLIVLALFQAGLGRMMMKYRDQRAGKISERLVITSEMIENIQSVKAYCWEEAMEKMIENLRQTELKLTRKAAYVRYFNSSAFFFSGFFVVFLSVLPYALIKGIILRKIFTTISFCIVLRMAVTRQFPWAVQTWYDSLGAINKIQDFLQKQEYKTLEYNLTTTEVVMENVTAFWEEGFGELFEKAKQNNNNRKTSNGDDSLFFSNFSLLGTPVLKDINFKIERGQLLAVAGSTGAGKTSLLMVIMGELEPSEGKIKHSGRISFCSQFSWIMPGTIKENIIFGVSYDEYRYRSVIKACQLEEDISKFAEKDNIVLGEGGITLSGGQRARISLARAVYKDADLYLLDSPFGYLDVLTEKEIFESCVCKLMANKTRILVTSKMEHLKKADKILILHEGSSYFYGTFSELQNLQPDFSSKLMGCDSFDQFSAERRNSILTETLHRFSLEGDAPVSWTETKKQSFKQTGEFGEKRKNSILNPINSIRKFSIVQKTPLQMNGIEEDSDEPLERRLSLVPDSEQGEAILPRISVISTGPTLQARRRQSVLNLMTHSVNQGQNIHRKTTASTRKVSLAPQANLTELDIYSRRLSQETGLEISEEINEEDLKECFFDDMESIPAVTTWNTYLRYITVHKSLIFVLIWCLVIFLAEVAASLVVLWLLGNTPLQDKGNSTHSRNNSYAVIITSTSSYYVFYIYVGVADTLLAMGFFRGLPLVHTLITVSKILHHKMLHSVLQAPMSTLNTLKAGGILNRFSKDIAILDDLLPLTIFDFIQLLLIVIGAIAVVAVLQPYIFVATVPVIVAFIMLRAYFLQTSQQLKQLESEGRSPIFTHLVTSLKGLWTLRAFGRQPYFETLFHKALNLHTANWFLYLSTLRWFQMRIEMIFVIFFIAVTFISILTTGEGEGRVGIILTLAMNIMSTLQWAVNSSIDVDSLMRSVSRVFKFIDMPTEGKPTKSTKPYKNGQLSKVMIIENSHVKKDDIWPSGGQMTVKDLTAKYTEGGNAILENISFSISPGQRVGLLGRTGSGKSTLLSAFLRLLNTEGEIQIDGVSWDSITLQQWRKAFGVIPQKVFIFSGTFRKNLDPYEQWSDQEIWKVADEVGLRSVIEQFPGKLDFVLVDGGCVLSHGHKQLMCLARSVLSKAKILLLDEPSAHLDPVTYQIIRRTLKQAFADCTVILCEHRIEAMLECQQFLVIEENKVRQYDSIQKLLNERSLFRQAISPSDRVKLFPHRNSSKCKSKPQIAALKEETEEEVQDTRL
# T2 sequence (P13569 whole entry): as above
Compound,IC50 [1] [µM],IC50 [2] [µM]
"O=C(NCc1cc(F)cc(C(F)(F)F)c1)c1ncn(-c2cc(Cl)c(O)c(Cl)c2)n1 [24i, 1-(3,5-dichloro-4-hydroxyphenyl)-N-(3-fluoro-5-(trifluoromethyl)benzyl)-1H-1,2,4-triazole-3-carboxamide]",15.2,4.93
"O=C(NCCC(c1ccccc1)c1ccccc1)c1ncn(-c2cc(Cl)c(O)c(Cl)c2)n1 [31i, 1-(3,5-dichloro-4-hydroxyphenyl)-N-(3,3-diphenylpropyl)-1H-1,2,4-triazole-3-carboxamide]",12.9,1.67
"O=C(NCc1cc(Cl)cc(Cl)c1)c1ncn(-c2cc(Cl)c(O)c(Cl)c2)n1 [36i, 1-(3,5-dichloro-4-hydroxyphenyl)-N-(3,5-dichlorobenzyl)-1H-1,2,4-triazole-3-carboxamide]",13.7,3.7
"O=C(NCc1cc(C(F)(F)F)ccc1F)c1ncn(-c2cc(Cl)c(O)c(Cl)c2)n1 [40i, 1-(3,5-dichloro-4-hydroxyphenyl)-N-(2-fluoro-5-(trifluoromethyl)benzyl)-1H-1,2,4-triazole-3-carboxamide]",28.6,2.86
"O=C(NCC(c1ccccc1)c1ccccc1)c1ncn(-c2cc(Cl)c(O)c(Cl)c2)n1 [44i, 1-(3,5-dichloro-4-hydroxyphenyl)-N-(2,2-diphenylethyl)-1H-1,2,4-triazole-3-carboxamide]",23.2,2.8
"CC(C)(C)C(=O)CN(Cc1ccc(C(C)(C)C)cc1)C(=O)c1ncn(-c2cc(Cl)c(O)c(Cl)c2)n1 [50i, N-(4-tert-butylbenzyl)-1-(3,5-dichloro-4-hydroxyphenyl)-N-(3,3-dimethyl-2-oxobutyl)-1H-1,2,4-triazole-3-carboxamide]",18.5,1.16
"Oc1c(Cl)cc(-n2cnc(C(O)(c3cc(F)cc(F)c3)c3cc(F)cc(F)c3)n2)cc1Cl [52i, 4-(3-(Bis(3,5-difluorophenyl)(hydroxy)methyl)-1H-1,2,4-triazol-1-yl)-2,6-dichlorophenol]",7.8,13.6
"Oc1c(Cl)cc(-n2cnc(C(O)(c3cccc(F)c3)c3cccc(F)c3)n2)cc1Cl [54i, 4-(3-(bis(3-fluorophenyl)(hydroxy)methyl)-1H-1,2,4-triazol-1-yl)-2,6-dichlorophenol]",22.7,22.9
"Oc1c(Cl)cc(-n2cnc(C(O)(Cc3ccc(F)cc3)Cc3ccc(F)cc3)n2)cc1Cl [56i, 4-(3-(1,3-bis(4-fluorophenyl)-2-hydroxypropan-2-yl)-1H-1,2,4-triazol-1-yl)-2,6-dichlorophenol]",25.5,20.4
"CC(C)(C)c1ccc(C(O)(c2ccc(C(C)(C)C)cc2)c2ncn(-c3cc(Cl)c(O)c(Cl)c3)n2)cc1 [58i, 4-(3-(bis(4-tert-butylphenyl)(hydroxy)methyl)-1H-1,2,4-triazol-1-yl)-2,6-dichlorophenol]",17,11.3
"O=C(NCc1ccc(Oc2ccc(OC(F)(F)F)cc2)cc1)c1ncn(-c2cc(Cl)c(O)c(Cl)c2)n1 [66i, 1-(3,5-dichloro-4-hydroxyphenyl)-N-(4-(4-(trifluoromethoxy)phenoxy)benzyl)-1H-1,2,4-triazole-3-carboxamide]",11.3,3.2
"O=C(NCc1ccc(Oc2ccc(F)c(C(F)(F)F)c2)cc1)c1ncn(-c2cc(Cl)c(O)c(Cl)c2)n1 [67i, 1-(3,5-dichloro-4-hydroxyphenyl)-N-(4-(4-fluoro-3-(trifluoromethyl)phenoxy)benzyl)-1H-1,2,4-triazole-3-carboxamide]",14.7,6.4
"CC(C)(C)c1ccc(Oc2ccc(CNC(=O)c3ncn(-c4cc(Cl)c(O)c(Cl)c4)n3)cc2)cc1 [68i, N-(4-(4-tert-butylphenoxy)benzyl)-1-(3,5-dichloro-4-hydroxyphenyl)-1H-1,2,4-triazole-3-carboxamide]",19.1,5.34

# Molecules with a lower IC50 [1], results first:
IC50 [1] [µM],IC50 [2] [µM],Compound
4.8,3.66,"O=C(NC(c1ccccc1)c1ccc(Cl)cc1)c1ncn(-c2cc(Cl)c(O)c(Cl)c2)n1 (centres unmarked) [33i, N-((4-chlorophenyl)(phenyl)methyl)-1-(3,5-dichloro-4-hydroxyphenyl)-1H-1,2,4-triazole-3-carboxamide]"
4.72,1.18,"CC(C)(C)c1ccc(CNC(=O)c2ncn(-c3cc(Cl)c(O)c(Cl)c3)n2)cc1 [34i, N-(4-tert-butylbenzyl)-1-(3,5-dichloro-4-hydroxyphenyl)-1H-1,2,4-triazole-3-carboxamide]"
5.71,2.67,"O=C(NCc1ccc(Cl)c(Cl)c1)c1ncn(-c2cc(Cl)c(O)c(Cl)c2)n1 [37i, 1-(3,5-dichloro-4-hydroxyphenyl)-N-(3,4-dichlorobenzyl)-1H-1,2,4-triazole-3-carboxamide]"
0.45,1.57,"O=C(NCc1ccc(Oc2ccccc2)cc1)c1ncn(-c2cc(Cl)c(O)c(Cl)c2)n1 [49i, 1-(3,5-dichloro-4-hydroxyphenyl)-N-(4-phenoxybenzyl)-1H-1,2,4-triazole-3-carboxamide]"
5.13,0.63,"C=CCN(Cc1ccc(C(C)(C)C)cc1)C(=O)c1ncn(-c2cc(Cl)c(O)c(Cl)c2)n1 [51i, N-allyl-N-(4-tert-butylbenzyl)-1-(3,5-dichloro-4-hydroxyphenyl)-1H-1,2,4-triazole-3-carboxamide]"
4.27,13,"Oc1c(Cl)cc(-n2cnc(C(O)(c3cccc(Cl)c3)c3cccc(Cl)c3)n2)cc1Cl [53i, 4-(3-(bis(3-chlorophenyl)(hydroxy)methyl)-1H-1,2,4-triazol-1-yl)-2,6-dichlorophenol]"
6.94,17.2,"Oc1c(Cl)cc(-n2cnc(C(O)(c3ccc(F)c(F)c3)c3ccc(F)c(F)c3)n2)cc1Cl [55i, 4-(3-(bis(3,4-difluorophenyl)(hydroxy)methyl)-1H-1,2,4-triazol-1-yl)-2,6-dichlorophenol]"
3.88,14.7,"Oc1c(Cl)cc(-n2cnc(C(O)(c3cc(F)cc(Cl)c3)c3cc(F)cc(Cl)c3)n2)cc1Cl [57i, 4-(3-(bis(3-chloro-5-fluorophenyl)(hydroxy)methyl)-1H-1,2,4-triazol-1-yl)-2,6-dichlorophenol]"
5.45,21.1,"Oc1c(Cl)cc(-n2cnc(C(O)(Cc3ccccc3F)Cc3ccccc3F)n2)cc1Cl [59i, 4-(3-(1,3-bis(2-fluorophenyl)-2-hydroxypropan-2-yl)-1H-1,2,4-triazol-1-yl)-2,6-dichlorophenol]"
5.45,16.2,"CC(C)(C)CCN(Cc1ccccc1)C(=O)c1ncn(-c2cc(Cl)c(O)c(Cl)c2)n1 [60i, N-Benzyl-1-(3,5-dichloro-4-hydroxyphenyl)-N-(3,3-dimethylbutyl)-1H-1,2,4-triazole-3-carboxamide]"
6.72,3.02,"CN(C)c1ccc(Oc2ccc(CNC(=O)c3ncn(-c4cc(Cl)c(O)c(Cl)c4)n3)cc2)cc1 [63i, 1-(3,5-dichloro-4-hydroxyphenyl)-N-(4-(4-(dimethylamino)phenoxy)benzyl)-1H-1,2,4-triazole-3-carboxamide]"
0.86,5.83,"O=C(NCc1ccc(Oc2cc(F)c(F)c(F)c2)cc1)c1ncn(-c2cc(Cl)c(O)c(Cl)c2)n1 [65i, 1-(3,5-dichloro-4-hydroxyphenyl)-N-(4-(3,4,5-trifluorophenoxy)benzyl)-1H-1,2,4-triazole-3-carboxamide]"

# From patent US20100144733A1, “Compounds, compositions and methods comprising heteroaromatic derivatives” (Institute for OneWorld Health, priority 2008, published 2010)
